According to patent US11229618B2 (Amarin Pharmaceuticals Ireland Limited, priority 2012, dated 2022):

Test system: subjects with Age-Associated Memory Impairment
Assay: AAMI 6-week study: CDR computerized cognitive test battery
Type: in vivo, human
Conditions: for Quality of Episodic Secondary Memory, LS mean difference versus placebo: overall; for Self-Rated Contentment, treatment effects: p<0.001
Method: A single-center, 6-week, double-blind, randomizes, parallel-group, placebo-controlled, dose-ranging pilot study was performed to evaluate the efficacy, tolerability, and safety of >96% ethyl-EPA in subjects with subjective and objective memory impairment according to generally accepted criteria for Age-Associated Memory Impairment (“AAMI”). The primary objective of the study was to determine the effect of >96% ethyl-EPA 1 g, 2 g, and 4 g daily, compared to placebo, on cognitive performance in subjects with AAMI.
Ninety-four subjects were randomized into one of six groups: 1 g E-EPA daily (n=23), 2 g E-EPA daily (n=24), 4 g E-EPA daily (n=24), 1 g placebo daily (n=7), 2 g placebo daily (n=8), and 4 g placebo daily (n=8). E-EPA was provided as 500 mg soft gel capsules containing>96% E-EPA and 0.2% dl-α-tocopherol as an antioxidant. Placebo capsules contained 467 mg of liquid paraffin and 0.2% dl-α-tocopherol. Ninety-one subjects completed the study. Two subjects in the 2 g E-EPA group and one subject in the 2 g placebo group discontinued the study.
The study consisted of a screening visit, a training visit, and four study visits. At the screening visit, subjects' eligibility was determined through cognitive tests (verbal paired associated learning [PAL] subscale, vocabulary subtest, Memory Assessment Clinics Questionnaire [MAC-Q], mini mental state evaluation [MMSE] and MINI [mini international neuropsychiatric interview; sections 1 and 2 of Diagnostic and Statistical Manual of Mental Disorders, 4th Edition (DSM-IV) plus dysthymia]), haematology, clinical chemistry and 12-lead electrocardiogram (ECG). At the training visit, subjects were shown how to use the CDR computerized system. Subjects took study drug for 6 weeks and on Days 0, 14, 28 and 42, subjects underwent the CDR cognitive test battery.
A selection of tasks from the CDR computerized cognitive assessment system were administered at Visit 2 (training visit), Visit 3 (baseline), Visit 4 (Day 14), Visit 5 (Day 28) and Visit 6 (Day 42). Parallel forms of the tests were presented at each testing session. All tasks were computer-controlled, the information presented on high resolution monitors, and the responses recorded via a response model containing two buttons: one marked ‘no’ and the other ‘yes’. Five CDR composite scores were used as the primary/secondary outcome variables. The task titles were: • Word Presentation • Immediate Word Recall • Picture Presentation • Simple Reaction Time • Digit Vigilance • Choice Reaction Time • Spatial Working Memory • Numeric Working Memory • Delayed Word Recall • Word Recognition • Picture Recognition • Bond-Lader Visual Analogue Scales of Mood and Alertness • Screen, Using the Computer Mouse
Difference from baseline data for each major variable was evaluated by an Analysis of Covariance (“ANCOVA”) using SAS® PROC MIXED Version 8.2. Fixed effects for treatment, day, time point, treatment by day, treatment by time point, treatment by day by time-point were fitted. Subject within treatment was fitted as a repeated effect using the repeated statement. The compound symmetry covariance structure was used. Subjects' time-matched predose assessments on Day 0 were used as a covariate in the analysis.
Least squares means (LS means) were calculated for treatment by day, treatment by time-point and treatment by day by time-point interaction. This formal analysis was conducted for the ITT and Study PP Populations separately.
A post-hoc analysis compared the individual placebo groups (1 g, 2 g and 4 g paraffin oil) with the corresponding ethyl-EPA doses.

[1] = post-hoc analysis, 1 g, Days 14 and 28

CC/C=C\C/C=C\C/C=C\C/C=C\C/C=C\CCCC(=O)OCC [IPE, all-cis eicosa-5,8,11,14,17-pentaenoic acid ethyl ester]
Continuity of Attention, effect of treatment (ITT): no statistically significant effect of treatment
Quality of Episodic Secondary Memory, effect of treatment (ITT): no statistically significant effect of treatment
Self-Rated Alertness, effect of treatment (ITT): no statistically significant effect of treatment
Self-Rated Calmness, effect of treatment (ITT): no statistically significant effect of treatment
Self-Rated Contentment, LS mean difference to placebo (ITT): no statistically significant effects
Speed of Memory and contributing subtasks, effect of treatment (ITT): no statistically significant effects of treatment
Power of Attention, effect of treatment (ITT, 1, 2, 4 g daily vs placebo): no statistically significant effect of treatment
Immediate Word Recall Accuracy, LS mean difference versus placebo (ITT, 1 g, AM 1, p=0.040): statistically significant decreases
Immediate Word Recall Accuracy, LS mean difference versus placebo (ITT, 1 g, Day 14, p=0.028): statistically significant decreases
Picture Recognition Speed versus placebo (ITT, 1 g, Day 14 at AM 2, p=0.084): trends for benefits
Immediate Word Recall Accuracy, LS mean difference versus placebo (ITT, 1 g, Day 14 at PM 2, p=0.020): statistically significant decreases
Word Recognition Sensitivity Index, LS mean difference versus placebo (ITT, 1 g, Day 28, p=0.024): statistically significant decreases
Picture Recognition Speed versus placebo (ITT, 1 g, Day 28 at AM 1, p=0.085): trends for benefits
Picture Recognition Sensitivity Index, LS mean difference versus placebo (ITT, 1 g, Day 28 at AM 2, p=0.017): statistically significant decrease
Picture Recognition Sensitivity Index, LS mean difference versus placebo (ITT, 1 g, Day 28 at PM 2, p=0.040): statistically significant decrease
Quality of Episodic Secondary Memory, LS mean difference versus placebo (ITT, 1 g, p=0.040): statistically significant decreases
Immediate Word Recall Accuracy, LS mean difference versus placebo (ITT, 2 g, AM 1, p=0.028): statistically significant decreases
Immediate Word Recall Accuracy, LS mean difference versus placebo (ITT, 2 g, Day 28, p=0.017): statistically significant decreases
Self-Rated Alertness, LS mean difference versus placebo (ITT, 2 g, Day 28, p=0.047): statistically significant decrease in ratings
Immediate Word Recall Accuracy, LS mean difference versus placebo (ITT, 2 g, Day 28 at AM 1, p=0.006): statistically significant decreases
Self-Rated Alertness, LS mean difference versus placebo (ITT, 2 g, Day 28 at AM 2, p=0.041): statistically significant decrease in ratings
Quality of Episodic Secondary Memory, LS mean difference versus placebo (ITT, 2 g, p=0.035): statistically significant decreases
Spatial Working Memory Speed, LS mean difference versus placebo (ITT, 4 g, Day 14 at PM 1, p=0.048): statistically significant benefit
Word Recognition Sensitivity Index, LS mean difference versus placebo (ITT, 4 g, Day 28 at PM 2, p=0.030): statistically significant decrease
Word Recognition Sensitivity Index, LS mean difference versus placebo (ITT, 4 g, Day 42, p=0.038): statistically significant decreases
Spatial Working Memory Speed, LS mean difference versus placebo (ITT, 4 g, Day 42 at AM 1, p=0.061): trend for a benefit
Word Recognition Sensitivity Index, LS mean difference versus placebo (ITT, 4 g, PM 2, p=0.045): statistically significant decrease
Self-Rated Contentment, treatment effects (ITT): statistically significant treatment by day interaction
Choice Reaction Time, treatment effects (ITT, p=0.011): statistically significant treatment by day interaction
Spatial Working Memory Sensitivity Index, treatment effects (ITT, p=0.015): statistically significant treatment by day interaction
Quality of Working Memory, treatment effects (ITT, p=0.019): statistically significant treatment by day interaction
Numeric Working Memory Sensitivity Index, treatment effects (ITT, p=0.089): statistical trend for a treatment by day interaction
Continuity of Attention, effect of treatment (Study Per Protocol): no statistically significant effect of treatment
Digit Vigilance Targets Detected, treatment effects (Study Per Protocol, p=0.040): statistically significant treatment by time-point interaction
Power of Attention, effect of treatment (Study Per-Protocol): no statistically significant effect of treatment
Quality of Episodic Secondary Memory, effect of treatment (Study Per-Protocol): no statistically significant effects of treatment
Self-Rated Alertness, effect of treatment (Study Per-Protocol): no statistically significant effect of treatment
Self-Rated Calmness, effect of treatment (Study Per-Protocol): no statistically significant effect of treatment
Self-Rated Contentment, LS mean difference to placebo (Study Per-Protocol): no statistically significant effects
Speed of Memory and contributing subtasks, effect of treatment (Study Per-Protocol): no statistical significant effects of treatment
Immediate Word Recall Accuracy, LS mean difference to placebo (Study Per-Protocol, 1 g, AM 1, p=0.038): statistically significant decreases
Immediate Word Recall Accuracy, LS mean difference to placebo (Study Per-Protocol, 1 g, AM 2, p=0.048): statistically significant decreases
Immediate Word Recall Accuracy, LS mean difference to placebo (Study Per-Protocol, 1 g, Day 14, p=0.024): statistically significant decreases
Immediate Word Recall Accuracy, LS mean difference to placebo (Study Per-Protocol, 1 g, Day 14 at PM 2, p=0.019): statistically significant decreases
Word Recognition Sensitivity Index, LS mean difference to placebo (Study Per-Protocol, 1 g, Day 28, p=0.027): statistically significant decreases
Picture Recognition Sensitivity Index, LS mean difference versus placebo (Study Per-Protocol, 1 g, Day 28 at AM 2, p=0.020): statistically significant decreases
Picture Recognition Sensitivity Index, LS mean difference versus placebo (Study Per-Protocol, 1 g, Day 28 at PM 2, p=0.026): statistically significant decreases
Quality of Episodic Secondary Memory, LS mean difference versus placebo (Study Per-Protocol, 1 g, p=0.043): statistically significant decreases
Immediate Word Recall Accuracy, LS mean difference to placebo (Study Per-Protocol, 2 g, AM 1, p=0.029): statistically significant decreases
Immediate Word Recall Accuracy, LS mean difference to placebo (Study Per-Protocol, 2 g, Day 28, p=0.017): statistically significant decreases
Self-Rated Alertness, LS mean difference versus placebo (Study Per-Protocol, 2 g, Day 28, p=0.035): statistically significant decrease in ratings
Immediate Word Recall Accuracy, LS mean difference to placebo (Study Per-Protocol, 2 g, Day 28 at AM 1, p=0.006): statistically significant decreases
Self-Rated Alertness, LS mean difference versus placebo (Study Per-Protocol, 2 g, Day 28 at AM 2, p=0.033): statistically significant decrease in ratings
Quality of Episodic Secondary Memory, LS mean difference versus placebo (Study Per-Protocol, 2 g, p=0.036): statistically significant decreases
Word Recognition Sensitivity Index, LS mean difference to placebo (Study Per-Protocol, 4 g, Day 42, p=0.038): statistically significant decreases
Self-Rated Calmness, LS mean difference versus placebo (Study Per-Protocol, 4 g, Day 42 at PM 1, p=0.071): statistical trend for an increase in ratings
Self-Rated Contentment, treatment effects (Study Per-Protocol): statistically significant treatment by day interaction
Choice Reaction Time, treatment effects (Study Per-Protocol, p=0.013): statistically significant treatment by day interaction
Spatial Working Memory Sensitivity Index, treatment effects (Study Per-Protocol, p=0.014): statistically significant treatment by day interaction
Quality of Working Memory, treatment effects (Study Per-Protocol, p=0.021): statistically significant treatment by day interaction
Self-Rated Calmness versus corresponding placebo (post-hoc analysis): no differences between active treatment and placebo
Self-rated Alertness versus corresponding placebo [1]: decreases in ratings
Self-rated Contentment versus corresponding placebo [1]: decreases in ratings
Power of Attention versus corresponding placebo (post-hoc analysis, 4 g, Day 42): overall benefit versus the corresponding placebo
Spatial Working Memory Sensitivity Index versus corresponding placebo (post-hoc analysis, 4 g, Day 42, Study PP Population): overall benefit
Simple Reaction Time versus corresponding placebo (post-hoc analysis, 4 g, PM 2 collapsed across days and several time-points on Days 14 and 42): improvements in performance
Choice Reaction Time versus corresponding placebo (post-hoc analysis, 4 g, all study days): overall benefit versus corresponding placebo
subtask measures of Speed of Memory versus corresponding placebo (post-hoc analysis, mostly for 1 g): some signs of improvement in performance
